Reference: patent publication US7902226B2, “Dehalogeno-compounds” (Daiichi Pharmaceutical Co., Ltd., priority 2000, dated 2011)
Read-outs that look alike come from different tables or passages of the source.

Assays:
[1] = Urinary excretion after oral administration (excretion test groups); assay type: in vivo; conditions: fasting rats, 20 mg/kg, urine 0-24 h
Description: An administration solution was prepared by dissolving a tested compound to a concentration of 2 mg/ml (as free compound) in distilled water, and using a 2.5 ml disposable syringe or a metal oral probe, the solution was orally administered at a dose of 20 mg/kg to fasting rats (Crj: CD IGS; male; 7-week-old; Charles River Japan, Inc.). […]
Determination of drug concentrations in liquid samples were quantified by an agar well method bioassay using the B. subtilis ATCC6051 strain as the test organism. […] After addition of the sample, the plate medium was set still for 1 hour at 4° C. to perform preliminary dispersion and then culturing at 37° C. was performed for approximately 18 hours, and the inhibition ring diameters were measured using CA-400 (Dainippon Seiki). The concentrations of the test samples were measured using a calibration curve determined by second-order regression from the logarithmic values of the drug concentration of the calibration curve serial dilutions and the inhibition ring diameters.
The urinary excretion rate (%) was determined from the amount (μg) of drug administered, amount (ml) of urine (or washing solution), and concentration (μ/ml) in urine (or washing solution): [(Urinary excretion rate]=100×([Amount of urine]×[Concentration in urine])/[Amount of drug administered] Method 3: Calculation of Pharmacokinetic Parameters

[2] = Blood concentration and organ concentration after oral administration (absorption test groups); assay type: in vivo; conditions: fasting rats, 20 mg/kg; for Kp / Cmax / AUC(0-t) / half-life: male, Crj: CD IGS, rat; for Cmax / AUC(0-t) / half-life: serum; for AUC(0-t): read-out: Serum AUC0-4h; for half-life: read-out: Serum t1/2 (converted)
Description: For the compound of this invention described as Example 1, the blood concentration and organ concentration after oral administration were determined by the following methods. Measurements were also made by the same methods for Reference drug 1.
An administration solution was prepared by dissolving a tested compound to a concentration of 2 mg/ml (as free compound) in distilled water, and using a 2.5 ml disposable syringe or a metal oral probe, the solution was orally administered at a dose of 20 mg/kg to fasting rats (Crj: CD IGS; male; 7-week-old; Charles River Japan, Inc.).
The absorption test groups (4 rats per group; total of 6 groups) were killed by exsanguination while under ether anesthetization 0.25, 0.5, 1, 2, 4, or 6 hours after drug administration, and the blood, liver, kidneys, and lungs were sampled. With the blood, serum was sampled by centrifugation (3000 rpm×15 minutes, 4° C.) after coagulation. Tissues were homogenized after adding 3 to 5 ml of 0.1M phosphate buffer solution (pH 7.0) and the centrifugation supernatants (3000 rmpm×15 minutes, 4° C.) were collected.
Determination of drug concentrations in liquid samples were quantified by an agar well method bioassay using the B. subtilis ATCC6051 strain as the test organism. A test medium was prepared by inoculating a suspension containing 5×10^7 CFU/ml of spores of the test bacteria at a proportion of 1% into an nutrient agar (Eiken Kagaku) that was sterilized at 121° C. for 15 minutes and then cooled to approximately 50° C. After placing 10 ml each of this medium in a sterilized Petri dish and solidifying horizontally, four holes of 8 mm diameter were made to prepare a test plate medium. The Bioassay System TDA-1 (Dainippon Seiki) was used for preparation of the test plate media. For the measurements, the test samples (diluted with serum or phosphate buffer solution as necessary), serial dilutions of the drug solutions for calibration (two-fold serial dilutions prepared so that the inhibition ring diameter will be approximately 10 to 30 mm), and a reference drug solution (a drug solution of given concentration for correction of the error among plates; normally, a concentration of forming an inhibition ring of approximately […] is used) were prepared, and 50 μL of the test sample (or the drug solution for calibration) were placed in each of two of the four holes of each plate and 50 μL of the reference solution was placed in each of the other two holes. After addition of the sample, the plate medium was set still for 1 hour at 4° C. to perform preliminary dispersion and then culturing at 37° C. was performed for approximately 18 hours, and the inhibition ring diameters were measured using CA-400 (Dainippon Seiki). The concentrations of the test samples were measured using a calibration curve determined by second-order regression from the logarithmic values of the drug concentration of the calibration curve serial dilutions and the inhibition ring diameters.
For the tissue concentration (μg/ml), the concentration (μg/ml) in the homogenate supernatant was determined from the tissue weight (g) and the added phosphate buffer amount (ml) and using the following equation: [Tissue concentration]=[Homogenate concentration]×([Tissue weight]+[Buffer solution amount])/[Tissue weight]
For each drug, the pharmacokinetic parameters in rats were calculated based on mean concentration, by non-compartmental analysis, and using the pharmacodynamics analysis software, PSAG-CP (Asmedica).

[3] = kidney/serum, kidney, read-out: AUC0-4h tissue/serum ratio Kidney
[4] = liver/serum, liver, read-out: AUC0-4h tissue/serum ratio Liver
[5] = lung/serum, lung, read-out: AUC0-4h tissue/serum ratio Lung

Cc1c(N2CC[C@@H](C3(N)CC3)C2)c(F)cc2c(=O)c(C(=O)O)cn([C@@H]3C[C@@H]3F)c12 [Reference drug 1, 7-[3-(R)-(1-aminocyclopropyl)pyrrolidin-1-yl]-6-fluoro-1-[2-(S)-fluoro-1-(R)-cyclopropyl]-8-methyl-1,4-dihydro-4-oxoquinoline-3-carboxylic acid, reference compound]
Urinary recovery ratio (per dose) 0-24 h [1]: 1.8%
Tissue AUC0-4h Kidney ([2]; kidney): 7.1
Tissue Cmax Kidney ([2]; kidney): 5.0 µg/g
Tissue AUC0-4h Liver ([2]; liver): 10.4
Tissue Cmax Liver ([2]; liver): 11.6 µg/g
Tissue AUC0-4h Lung ([2]; lung): 5.3
Tissue Cmax Lung ([2]; lung): 3.0 µg/g
Kp [2, 3]: 7.1
Kp [2, 4]: 10.4
Kp [2, 5]: 5.3
Cmax [2]: 1600 ng/mL
AUC(0-t) [2]: 2300 ng·h/mL
half-life [2]: 1 h

Cc1c(N2CC[C@@H](C3(N)CC3)C2)ccc2c(=O)c(C(=O)O)cn([C@@H]3C[C@@H]3F)c12 [Example 1, 7-[3-(R)-(1-aminocyclopropyl)pyrrolidin-1-yl]-1-[2-(S)-fluoro-1-(R)-cyclopropyl]-1,4-dihydro-8-methyl-4-oxoquinoline-3-carboxylic acid]
Urinary recovery ratio (per dose) 0-24 h [1]: 8.1%
Tissue AUC0-4h Kidney ([2]; kidney): 29.0
Tissue Cmax Kidney ([2]; kidney): 14.2 µg/g
Tissue AUC0-4h Liver ([2]; liver): 34.5
Tissue Cmax Liver ([2]; liver): 27.4 µg/g
Tissue AUC0-4h Lung ([2]; lung): 10.0
Tissue Cmax Lung ([2]; lung): 3.8 µg/g
Kp [2, 3]: 29
Kp [2, 4]: 34.5
Kp [2, 5]: 10
Cmax [2]: 1700 ng/mL
AUC(0-t) [2]: 3100 ng·h/mL
half-life [2]: 1.2 h
